From patent publication US8088761B2, “Enzyme inhibitors” (Cancer Research Technology Limited, priority 2005, dated 2012) come the findings set out here.

In test [1] the target is T1, Aurora-B (Homo sapiens, UniProt Q96GD4). Description: Flashplate assay for Aurora-B inhibitors. The settings on record: read-out: IC50 against Aurora-B. Format: biochemical. The protocol: (§1) On this assay 384-well Basic Flashplate® (SMP400E, PerkinElmer) as solid assay platform was used. The plates were coated overnight at 4° C. with […] at 100 μg/ml in PBS buffer and used after being washed twice with PBS. 5 μl of compound in 2% DMSO was added to each well followed by 15 μl master mix of kinase buffer (50 mM Tris pH 7.5, 10 mM NaCl, 2.5 mM MgCl2, 1 mM […], 20 μM ATP, and 0.025 μCi/μl ^33P-ATP). Finally, 250 ng per well of Aurora-A enzyme was added. The plate was shaken for approximately 2 min on a flat-bed plate shaker (Wellmix, Denley, UK) and incubated for 2 hours at room temperature. The reaction was stopped by washing the plate twice on a 16-pin wash (ELX50 BioTek Instruments Ltd., Northstar, Bedford, UK) with 10 mM sodium pyrophosphate. The plate was then read on a TopCount-NX™ (PerkinElmer Life Sciences UK Ltd., Hounslow, UK).
T1 sequence (Q96GD4 whole entry): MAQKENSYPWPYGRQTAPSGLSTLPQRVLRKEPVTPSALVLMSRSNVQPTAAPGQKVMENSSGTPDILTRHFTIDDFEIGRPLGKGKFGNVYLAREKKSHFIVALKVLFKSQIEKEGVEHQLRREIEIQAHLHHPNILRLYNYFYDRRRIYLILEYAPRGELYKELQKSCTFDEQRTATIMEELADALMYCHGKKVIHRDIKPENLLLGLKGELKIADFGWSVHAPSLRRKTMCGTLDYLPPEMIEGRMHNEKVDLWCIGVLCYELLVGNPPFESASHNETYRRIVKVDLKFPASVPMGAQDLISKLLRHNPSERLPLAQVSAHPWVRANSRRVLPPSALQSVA
(§2) Flashplate® Assay for Identification and Evaluation of Aurora-B and Aurora-C Inhibitors
(§3) For the determination of the inhibitory activity against Aurora-B or Aurora-C, the same conditions were followed in the assay using Aurora-B or Aurora-C enzymes.

In test [2] the test system is HCT116 cells. Description: Cell viability assay (MTT) in HCT116 cell line. Format: cell-based. The conditions noted are these: Homo sapiens, HCT-116, 72 hrs, IC50 range, read-out: HCT116 cell growth inhibition. In a few lines: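 MTT read-out (4 hrs, 37 °C, DMSO extraction) following 72 hrs of treatment with 0-50 μM Aurora inhibitor. HCT116 cells were plated a day earlier and tested in triplicate; IC50 derived from the curve.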

Test [3] has as its target T2, Aurora-A (Homo sapiens, UniProt O14965).
T2 sequence (O14965 1-403): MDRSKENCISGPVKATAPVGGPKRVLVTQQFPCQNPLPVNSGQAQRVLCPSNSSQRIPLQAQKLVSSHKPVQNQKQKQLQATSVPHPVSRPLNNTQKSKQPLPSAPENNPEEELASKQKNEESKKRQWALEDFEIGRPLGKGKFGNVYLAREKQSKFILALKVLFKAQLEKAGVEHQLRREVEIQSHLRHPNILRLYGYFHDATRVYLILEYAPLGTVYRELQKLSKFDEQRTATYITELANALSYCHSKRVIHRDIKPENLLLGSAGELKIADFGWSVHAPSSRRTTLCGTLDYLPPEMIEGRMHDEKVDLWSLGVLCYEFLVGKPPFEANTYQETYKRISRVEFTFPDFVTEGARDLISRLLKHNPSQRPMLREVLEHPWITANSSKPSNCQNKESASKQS
Description: Flashplate Aurora A enzyme inhibition assay. It is filed as biochemical. The conditions noted are these: Flashplate assay; IC50 range; read-out: Aurora-A inhibition. The essentials:
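This is a radiometric Flashplate format: plates were precoated with DTT, and compound (in 2% DMSO) was mixed with kinase buffer (pH 7.5 Tris, MgCl2, NaCl) containing 1 mM MBP, 20 μM ATP and ^33P-ATP. The reaction was started with 250 ng Aurora-A per well and incubated 2 h at RT. It was then stopped by 10 mM sodium pyrophosphate washing, and plates were scintillation-counted.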

Test [4] concerns the target T3, Aurora-C (Homo sapiens, UniProt Q9UQB9).
T3 sequence (Q9UQB9 1-309): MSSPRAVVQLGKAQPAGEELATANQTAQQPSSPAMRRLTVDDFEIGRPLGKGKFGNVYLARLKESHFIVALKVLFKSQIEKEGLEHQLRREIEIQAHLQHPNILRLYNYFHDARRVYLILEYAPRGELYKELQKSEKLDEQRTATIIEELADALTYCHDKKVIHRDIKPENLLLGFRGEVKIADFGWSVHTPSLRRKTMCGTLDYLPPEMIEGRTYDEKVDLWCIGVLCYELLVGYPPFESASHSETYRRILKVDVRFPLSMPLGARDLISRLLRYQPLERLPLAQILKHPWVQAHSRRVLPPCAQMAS
The experiment in a line: Flashplate assay for Aurora-C inhibitors. The settings on record: read-out: IC50 against Aurora-C. It is filed as biochemical. The protocol: as §1, §2, §3

The target of test [5] is T2, Aurora-A. The experiment in a line: Filterplate assay for Aurora-A inhibitors. Format: biochemical. The settings on record: read-out: IC50 against Aurora-A. The method, then:
Filterplate Assay for Identification and Evaluation of Aurora-A Inhibitors
(§4) 40 μl master mix of kinase buffer (50 mM Tris pH 7.5, 10 mM NaCl, 2.5 mM MgCL2, 1 mM DTT, 20 μM ATP, 0.025 μCi/μl ^33P-ATP, and 100 μg/ml MBP was added to a 96-well plate followed by addition of 250 ng of Aurora-A enzyme per well. The plate was shaken for approximately 2 min on a flat-bed plate shaker (Wellmix, Denley, UK) and incubated for 2 hours at room temperature. The reaction was stopped by the addition of 30 μl of 2% orthophosphoric acid. The reaction mixture was then transferred and filtered on the 96-well Multi-Screening Filter Plate (MATAH0P00, MILLIPORE), pre-treated with 50 μl per well of 0.5% orthophosphoric acid. The plate was washed twice with 200 μl of 0.5% orthophosphoric acid and vacuum-dried. 25 μl of scintillant (Microscint™20, PerkinElmer) per well was added and the plate was shaken for 10 min. Finally, the plate was re-sealed with TopSealA and the signal from the filter-bound component was read on TopCount-NXT™ (PerkinElmer Life Sciences UK Ltd., Hounslow, UK).

Test [6] addresses T1, Aurora-B. Description: Filterplate assay for Aurora-B inhibitors. The conditions noted are these: read-out: IC50 range in respect of Aurora-B. It is filed as biochemical. The protocol:
as §4
(§5) Filterplate Assay for Identification and Evaluation of Aurora-B and Aurora-C Inhibitors
as §3

Test [7] addresses T3, Aurora-C. Description: Filterplate assay for Aurora-C inhibitors. Format: biochemical. The settings on record: read-out: IC50 range in respect of Aurora-C. The method, then:
as §4, §5, §3

Turning to `CN(C)c1ccc(-c2nc3c(N4CCN(CC(=O)Nc5nccs5)CC4)c(Cl)cnc3[nH]2)cc1` [Example 1, 2-{4-[6-Chloro-2-(4-dimethylamino-phenyl)-3H-imidazo[4,5-b]pyridin-7-yl]-piperazin-1-yl}-N-thiazol-2-yl-acetamide], the IC50 in test [1] is 110 nM; in test [2], under 500 nM; in test [3], under 500 nM; in test [4] it was 362 nM; in test [5] it was 80 nM.
As to `Brc1cnc2[nH]c(-c3ccc(CN4CCOCC4)cc3)nc2c1N1CCN(Cc2cccnc2)CC1` [Example 65, 6-Bromo-2-(4-morpholin-4-ylmethyl-phenyl)-7-(4-pyridin-3-ylmethyl-piperazin-1-yl)-3H-imidazo[4,5-b]pyridine], the IC50 was under 500 nM in test [2], under 500 nM in test [3], 500 to 2000 nM in test [6] and under 500 nM in test [7].
Consider `Cc1cc(CN2CCN(c3c(Br)cnc4[nH]c(-c5ccc(CN6CCOCC6)cc5)nc34)CC2)no1` [Example 75, 6-Bromo-7-[4-(5-methyl-isoxazol-3-ylmethyl)-piperazin-1-yl]-2-(4-morpholin-4-ylmethyl-phenyl)-3H-imidazo[4,5-b]pyridine], for which the IC50 in test [2], in test [3], in test [6] and in test [7] was under 500 nM each time.
As for `Cc1cc(CN2CCN(c3c(Br)cnc4[nH]c(-c5ccc(Cn6cccn6)cc5)nc34)CC2)no1` [Example 77, 6-Bromo-7-[4-(5-methyl-isoxazol-3-ylmethyl)-piperazin-1-yl]-2-(4-pyrazol-1-ylmethyl-phenyl)-3H-imidazo[4,5-b]pyridine], the IC50 in test [2], in test [3], in test [6] and in test [7] was under 500 nM throughout.
In the case of `Brc1cnc2[nH]c(-c3ccc(CN4CCNCC4)cc3)nc2c1N1CCN(Cc2cccnc2)CC1` [Example 106, 6-Bromo-2-(4-(piperazin-1-ylmethyl)phenyl)-7-(4-(pyridin-3-ylmethyl)piperazin-1-yl)-3H-imidazo[4,5-b]pyridine], the IC50 was under 500 nM in test [2], under 500 nM in test [3], 500 to 2000 nM in test [6] and under 500 nM in test [7].
`Brc1cnc2[nH]c(-c3ccc(CN4CCOCC4)cc3)nc2c1N1CCN(Cc2cncnc2)CC1` [Example 122, 4-(4-(6-Bromo-7-(4-(pyrimidin-5-ylmethyl)piperazin-1-yl)-3H-imidazo[4,5-b]pyridin-2-yl)benzyl)morpholine]: the IC50 in test [2], in test [3], in test [6] and in test [7] was under 500 nM each time.
As to `Cc1nc(CN2CCN(c3c(Br)cnc4[nH]c(-c5ccc(Cn6cccn6)cc5)nc34)CC2)cs1` [Example 162, 4-((4-(2-(4-((1H-Pyrazol-1-yl)methyl)phenyl)-6-bromo-3H-imidazo[4,5-b]pyridin-7-yl)piperazin-1-yl)methyl)-2-methylthiazole], the IC50 in test [2] was under 500 nM; in test [3], under 500 nM; in test [6] it was 500 to 2000 nM; in test [7] it was under 500 nM.
As for `Brc1cnc2[nH]c(-c3ccc(CN4CCNCC4)cc3)nc2c1N1CCN(Cc2cscn2)CC1` [Example 179, 4-((4-(6-Bromo-2-(4-(piperazin-1-ylmethyl)phenyl)-3H-imidazo[4,5-b]pyridin-7-yl)piperazin-1-yl)methyl)thiazole], the IC50 in test [2] is 500 to 2000 nM; in test [3], under 500 nM.
For `Cn1cncc1CN1CCN(c2c(Br)cnc3[nH]c(-c4ccc(CN5CCNCC5)cc4)nc23)CC1` [Example 181, 6-bromo-7-(4-((1-methyl-1H-imidazol-5-yl)methyl)piperazin-1-yl)-2-(4-(piperazin-1-ylmethyl)phenyl)-3H-imidazo[4,5-b]pyridine], the IC50 in test [2] was 2000 to 50000 nM; in test [3] it was under 500 nM.
For `Cn1cncc1CN1CCN(c2c(Br)cnc3[nH]c(-c4ccc(Cn5cccn5)cc4)nc23)CC1` [Example 182, 2-(4-((1H-Pyrazol-1-yl)methyl)phenyl)-6-bromo-7-(4-((1-methyl-1H-imidazol-5-yl)methyl)piperazin-1-yl)-3H-imidazo[4,5-b]pyridine], the IC50 was 500 to 2000 nM in test [2] and under 500 nM in test [3].
Regarding `O=C(CN1CCN(c2c(Cl)cnc3[nH]c(-c4ccc(OCCO)cc4)nc23)CC1)Nc1nccs1` [Example 183, 2-(4-(6-Chloro-2-(4-(2-hydroxyethoxy)phenyl)-3H-imidazo[4,5-b]pyridin-7-yl)piperazin-1-yl)-N-(thiazol-2-yl)acetamide], the IC50 is 500 to 2000 nM in test [2] and under 500 nM in test [3].
Turning to `O=C(CN1CCN(c2c(Cl)cnc3[nH]c(-c4ccc(N5CCC(O)CC5)cc4)nc23)CC1)Nc1nccs1` [Example 184, 2-(4-(6-Chloro-2-(4-(4-hydroxypiperidin-1-yl)phenyl)-3H-imidazo[4,5-b]pyridin-7-yl)piperazin-1-yl)-N-(thiazol-2-yl)acetamide], the values for the IC50 in test [2] and in test [3] were 500 to 2000 nM and under 500 nM, respectively.
Regarding `O=C(CN1CCN(c2c(Cl)cnc3[nH]c(-c4cccc(OCCN5CCOCC5)c4)nc23)CC1)Nc1nccs1` [Example 185, 2-(4-(6-Chloro-2-(3-(2-morpholinoethoxy)phenyl)-3H-imidazo[4,5-b]pyridin-7-yl)piperazin-1-yl)-N-(thiazol-2-yl)acetamide], the IC50 in test [2] and in test [3] was under 500 nM each time.
In the case of `CN(C)CCOc1ccc(-c2nc3c(N4CCN(CC(=O)Nc5nccs5)CC4)c(Cl)cnc3[nH]2)cc1` [Example 186, 2-(4-(6-Chloro-2-(4-(2-(dimethylamino)ethoxy)phenyl)-3H-imidazo[4,5-b]pyridin-7-yl)piperazin-1-yl)-N-(thiazol-2-yl)acetamide], the IC50 in test [2] and in test [3] was under 500 nM throughout.
For `O=C(CN1CCN(c2c(Cl)cnc3[nH]c(-c4ccc(N5CCS(=O)(=O)CC5)cc4)nc23)CC1)Nc1nccs1` [Example 187, 2-(4-(6-Chloro-2-(4-(1,1-dioxothiomorpholino)phenyl)-3H-imidazo[4,5-b]pyridin-7-yl)piperazin-1-yl)-N-(thiazol-2-yl)acetamide], the IC50 was 500 to 2000 nM in test [2] and under 500 nM in test [3].
